Where “and” joins values, the source holds several entries; their conditions need not be identical. Identical values can stand only once. Toxic doses and inconclusive results are not listed. Rule as the data show it: active = T/C of 150% or more; inactive = T/C below 125%.
Tested on: L1210 leukemia ip in BDF1 mice, survival T/C
Assay: NCI In Vivo Anticancer Drug Screen. Data for tumor model L1210 Leukemia (intraperitoneal) in B6D2F1 (BDF1) mice
Details: endpoint: mean survival time, higher = longer survival
How it was run: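 Tumor cells were implanted, animals were treated, and survival was followed. The result divides the treated measurement by the vehicle-control measurement.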

[1] = dose: 12.5 mg/kg/injection, schedule: Q01DX009 (ip), vehicle: Klucel (hydroxypropylcellulose) (HPC)
[2] = dose: 25.0 mg/kg/injection, schedule: Q01DX009 (ip), vehicle: Klucel (hydroxypropylcellulose) (HPC)
[3] = dose: 100.0 mg/kg/injection, schedule: Q01DX001 (ip), vehicle: saline
[4] = dose: 200.0 mg/kg/injection, schedule: Q01DX001 (ip), vehicle: saline
[5] = dose: 400.0 mg/kg/injection, schedule: Q01DX001 (ip), vehicle: saline
[6] = dose: 50.0 mg/kg/injection, schedule: Q01DX009 (ip), vehicle: saline with Tween-80
[7] = dose: 100.0 mg/kg/injection, schedule: Q01DX009 (ip), vehicle: saline with Tween-80
[8] = dose: 200.0 mg/kg/injection, schedule: Q01DX009 (ip), vehicle: saline with Tween-80
[9] = dose: 100.0 mg/kg/injection, schedule: Q01DX001 (ip), vehicle: saline with Tween-80
[10] = dose: 200.0 mg/kg/injection, schedule: Q01DX001 (ip), vehicle: saline with Tween-80
[11] = dose: 400.0 mg/kg/injection, schedule: Q01DX001 (ip), vehicle: saline with Tween-80
[12] = dose: 100.0 mg/kg/injection, schedule: Q01DX001 (ip), vehicle: Klucel (hydroxypropylcellulose) (HPC)
[13] = dose: 200.0 mg/kg/injection, schedule: Q01DX001 (ip), vehicle: Klucel (hydroxypropylcellulose) (HPC)
[14] = dose: 400.0 mg/kg/injection, schedule: Q01DX001 (ip), vehicle: Klucel (hydroxypropylcellulose) (HPC)
[15] = dose: 25.0 mg/kg/injection, schedule: Q04DX003 (ip), vehicle: Klucel (hydroxypropylcellulose) (HPC)
[16] = dose: 100.0 mg/kg/injection, schedule: Q04DX003 (ip), vehicle: Klucel (hydroxypropylcellulose) (HPC)
[17] = dose: 100.0 mg/kg/injection, schedule: Q01DX009 (ip), vehicle: saline
[18] = dose: 200.0 mg/kg/injection, schedule: Q01DX009 (ip), vehicle: saline
[19] = dose: 400.0 mg/kg/injection, schedule: Q01DX009 (ip), vehicle: saline
[20] = dose: 100.0 mg/kg/injection, schedule: Q04DX003 (ip), vehicle: saline with Tween-80
[21] = dose: 200.0 mg/kg/injection, schedule: Q04DX003 (ip), vehicle: saline with Tween-80
[22] = dose: 200.0 mg/kg/injection, schedule: Q04DX003 (ip), vehicle: Klucel (hydroxypropylcellulose) (HPC)
[23] = dose: 400.0 mg/kg/injection, schedule: Q04DX003 (ip), vehicle: Klucel (hydroxypropylcellulose) (HPC)

Measured: T/C

CCCOc1ccc(C2=NCC(C)S2)c(C)c1 (centres undefined)
inactive: [1] 94 % of control | [2] 91 % of control | dose: 50.0 mg/kg/injection, schedule: Q01DX009 (ip), vehicle: Klucel (hydroxypropylcellulose) (HPC) 98 % of control and 90 % of control | dose: 100.0 mg/kg/injection, schedule: Q01DX005 (ip), vehicle: Klucel (hydroxypropylcellulose) (HPC) 101 % of control | dose: 200.0 mg/kg/injection, schedule: Q01DX005 (ip), vehicle: Klucel (hydroxypropylcellulose) (HPC) 89 % of control

COC1OC2COCOC2C2OCOC12 (centres undefined)
inactive: dose: 50.0 mg/kg/injection, schedule: Q04DX002 (ip), vehicle: Klucel (hydroxypropylcellulose) (HPC) 95 % of control | dose: 100.0 mg/kg/injection, schedule: Q04DX002 (ip), vehicle: Klucel (hydroxypropylcellulose) (HPC) 98 % of control | dose: 200.0 mg/kg/injection, schedule: Q04DX002 (ip), vehicle: Klucel (hydroxypropylcellulose) (HPC) 98 % of control

Oc1ccccc1C1OCCO1
inactive: [3] 107 % of control | [4] 95 % of control | [5] 95 % of control

CCOC(=O)C(C#N)C1c2ccccc2Nc2ccccc21 (centres undefined)
inactive: [6] 98 % of control | [7] 95 % of control | [8] 91 % of control

CCC[As](=O)(O)CC[As](=O)(O)CCC
inactive: [9] 104 % of control | [10] 112 % of control | [11] 96 % of control

CCOC(=O)N\C(N)=N/N=C(C)\C=N\N=C(/N)NC(=O)OCC
inactive: dose: 15.0 mg/kg/injection, schedule: Q01DX Z (ip), vehicle: carboxymethylcellulose (CMC) 95 % of control | dose: 30.0 mg/kg/injection, schedule: Q01DX Z (ip), vehicle: carboxymethylcellulose (CMC) 101 % of control | dose: 60.0 mg/kg/injection, schedule: Q01DX Z (ip), vehicle: carboxymethylcellulose (CMC) 106 % of control | dose: 120.0 mg/kg/injection, schedule: Q01DX Z (ip), vehicle: carboxymethylcellulose (CMC) 97 % of control

O=c1[nH]c(C(F)(F)F)nc2[nH]ncc12
inactive: dose: 29.0 mg/kg/injection, schedule: Q01DX Z (ip), vehicle: methylcellulose (MC) 102 % of control | dose: 45.0 mg/kg/injection, schedule: Q01DX Z (ip), vehicle: methylcellulose (MC) 106 % of control | dose: 67.0 mg/kg/injection, schedule: Q01DX Z (ip), vehicle: methylcellulose (MC) 108 % of control | dose: 100.0 mg/kg/injection, schedule: Q01DX Z (ip), vehicle: methylcellulose (MC) 93 % of control

CCCCOC(=O)CCSCCC(=O)OCCCC
inactive: [7] 102 % of control | [8] 94 % of control | dose: 400.0 mg/kg/injection, schedule: Q01DX009 (ip), vehicle: saline with Tween-80 102 % of control

O=[N+]([O-])c1ccc(/C=C/c2ccc(S(=O)(=O)F)cc2Cl)c(Cl)c1
inactive: [12] 97 % of control | [13] 87 % of control | [14] 93 % of control

C/C(=N/NC(N)=S)c1ccc[nH]1
inactive: [12] 108 % of control | [13] 93 % of control

COC(=O)CCC(=O)Nc1ccc(C(=O)CBr)cc1
inactive: dose: 6.25 mg/kg/injection, schedule: Q01DX009 (ip), vehicle: Klucel (hydroxypropylcellulose) (HPC) 98 % of control | [1] 96 % of control | dose: 12.5 mg/kg/injection, schedule: Q04DX003 (ip), vehicle: Klucel (hydroxypropylcellulose) (HPC) 97 % of control | [2] 102 % of control | [15] 96 % of control | dose: 35.0 mg/kg/injection, schedule: Q01DX009 (ip), vehicle: Klucel (hydroxypropylcellulose) (HPC) 95 % of control | dose: 55.0 mg/kg/injection, schedule: Q01DX009 (ip), vehicle: Klucel (hydroxypropylcellulose) (HPC) 93 % of control

CN(C)C(=S)SCCOc1ccc(Cl)cc1Cl
inactive: [15] 95 % of control | dose: 50.0 mg/kg/injection, schedule: Q04DX003 (ip), vehicle: Klucel (hydroxypropylcellulose) (HPC) 98 % of control | [12] 96 % of control | [16] 101 % of control | [13] 100 % of control | [14] 104 % of control

CCOc1ccc(NC(=O)c2cccc(Cl)c2)cc1
inactive: [17] 109 % of control | [18] 96 % of control | [19] 96 % of control

CCOC(=O)CC(=O)c1ccc(C(=O)CC(=O)O)cc1 (tested in a mixture with another compound)
inactive: dose: 25.6 mg/kg/injection, schedule: Q04DX002 (ip), vehicle: saline with Tween-80 87 % of control | [6] 89 % of control | dose: 64.0 mg/kg/injection, schedule: Q04DX002 (ip), vehicle: saline with Tween-80 95 % of control | [7] 96 % of control | [20] 90 % of control | dose: 160.0 mg/kg/injection, schedule: Q04DX002 (ip), vehicle: saline with Tween-80 91 % of control | [8] 88 % of control | [21] 87 % of control | dose: 400.0 mg/kg/injection, schedule: Q04DX002 (ip), vehicle: saline with Tween-80 87 % of control

O=C(C(=S)N1CCOCC1)c1ccccc1
inactive: [16] 101 % of control | [22] 104 % of control | [23] 101 % of control

NC1C(O)C(N)C(O)C(O)C1O (centres undefined)
inactive: dose: 100.0 mg/kg/injection, schedule: Q04DX003 (ip), vehicle: saline sonified 97 % of control | dose: 200.0 mg/kg/injection, schedule: Q04DX003 (ip), vehicle: saline sonified 97 % of control | dose: 400.0 mg/kg/injection, schedule: Q04DX003 (ip), vehicle: saline sonified 95 % of control

CC(=O)Oc1ccc(OC(C)=O)c2c1CC(C)=C(C)C2
inactive: [17] 95 % of control | dose: 100.0 mg/kg/injection, schedule: Q04DX003 (ip), vehicle: saline 97 % of control | [18] 90 % of control | dose: 200.0 mg/kg/injection, schedule: Q04DX003 (ip), vehicle: saline 98 % of control | [19] 92 % of control | dose: 400.0 mg/kg/injection, schedule: Q04DX003 (ip), vehicle: saline 97 % of control

S=C(NCCCN1Cc2ccccc2C1)Nc1ccccc1
inactive: [3] 96 % of control | [4] 104 % of control | [5] 96 % of control

OCCCNc1nc2ccccc2c2ccccc12
inactive: [17] 102 % of control | [16] 94 % of control | [18] 100 % of control | [22] 102 % of control | [23] 100 % of control

Nc1ccnc(=S)[nH]1
inactive: [12] 92 % of control | [13] 97 % of control | dose: 250.0 mg/kg/injection, schedule: Q01DX Z (ip), vehicle: methylcellulose (MC) 101 % of control | [14] 94 % of control

CC(C)CC(NC(=O)CNC(=O)OCc1ccccc1)C(=O)O (centres undefined)
inactive: [20] 101 % of control | [21] 97 % of control | dose: 400.0 mg/kg/injection, schedule: Q04DX003 (ip), vehicle: saline with Tween-80 91 % of control

CCN(CC)CCOc1ccc(C=Nc2ccc(I)cc2)cc1
inactive: dose: 100.0 mg/kg/injection, schedule: Q04DX003 (ip), vehicle: other 97 % of control | dose: 200.0 mg/kg/injection, schedule: Q04DX003 (ip), vehicle: other 98 % of control | dose: 400.0 mg/kg/injection, schedule: Q04DX003 (ip), vehicle: other 95 % of control

CC(=O)N(Cc1ccccc1)C1C(OCc2ccccc2)OC(CO)C(O)C1OCc1ccccc1 (centres undefined)
inactive: [9] 89 % of control | [10] 96 % of control | [11] 100 % of control

Nc1nnc2c(n1)[nH]c1ccccc12
inactive: dose: 50.0 mg/kg/injection, schedule: Q01DX001 (ip), vehicle: saline 96 % of control | [3] 100 % of control | [4] 93 % of control

Cc1ccccc1NC(=O)Oc1ccc(Cl)cc1Cl
inactive: dose: 100.0 mg/kg/injection, schedule: Q04DX002 (ip), vehicle: gum acacia 107 % of control | dose: 200.0 mg/kg/injection, schedule: Q04DX002 (ip), vehicle: gum acacia 100 % of control | dose: 400.0 mg/kg/injection, schedule: Q04DX002 (ip), vehicle: gum acacia 104 % of control

C(=N\N=C\c1ccco1)/c1ccco1
inactive: [9] 98 % of control and 103 % of control | [10] 98 % of control

— PubChem BioAssay AID248 (DTP/NCI, 2004)
